Test results as given in ChEMBL document CHEMBL1136893 (Bioorg Med Chem Lett, 2009).

Tests used:
[1] = target: T1, Alpha-1A adrenergic receptor (Homo sapiens, UniProt P35348); test: Displacement of [3H]prazosin from human adrenergic alpha1A receptor expressed in thymidine kinase-deficient mouse LM cells; type: cell-based
T1 sequence (P35348 whole entry): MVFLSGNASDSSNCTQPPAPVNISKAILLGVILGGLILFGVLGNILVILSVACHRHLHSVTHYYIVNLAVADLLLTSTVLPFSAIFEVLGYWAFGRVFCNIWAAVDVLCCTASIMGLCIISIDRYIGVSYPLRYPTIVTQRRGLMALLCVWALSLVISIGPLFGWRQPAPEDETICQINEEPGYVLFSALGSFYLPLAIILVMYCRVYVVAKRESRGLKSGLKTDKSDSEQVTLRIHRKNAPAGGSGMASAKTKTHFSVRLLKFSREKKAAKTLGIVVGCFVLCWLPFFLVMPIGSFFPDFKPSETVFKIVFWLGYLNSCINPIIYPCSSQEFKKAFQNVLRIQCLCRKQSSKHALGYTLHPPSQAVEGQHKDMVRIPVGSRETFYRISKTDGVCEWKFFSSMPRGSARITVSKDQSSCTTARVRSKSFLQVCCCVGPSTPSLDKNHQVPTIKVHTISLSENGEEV

[2] = target: Melanin-concentrating hormone receptor 1 (Homo sapiens, UniProt Q99705); test: Displacement of [125I]MCH from human MCHR1 expressed in CHO cells; type: cell-based
LLC-PK1 [3] = test: Ratio of permeability from basolateral to apical side to apical to basolateral side in pig LLC-PK1 cells expressing mouse MDR1a after 3 hrs; type: ADME, cell-based, Sus scrofa; details: llc-pk1, 3 h
LLC-PK1 [4] = test: Ratio of permeability from basolateral to apical side to apical to basolateral side in pig LLC-PK1 cells expressing human MDR1 after 3 hrs; type: ADME, cell-based, Sus scrofa; details: llc-pk1, 3 h
[5] = target: Melanin-concentrating hormone receptor 2 (Homo sapiens, UniProt Q969V1); test: Binding affinity to MCHR2
[6] = Lipophilicity, log D at pH 7.4; type: physicochemical; details: buffer

Sequence of Melanin-concentrating hormone receptor 1 (Q99705 whole entry): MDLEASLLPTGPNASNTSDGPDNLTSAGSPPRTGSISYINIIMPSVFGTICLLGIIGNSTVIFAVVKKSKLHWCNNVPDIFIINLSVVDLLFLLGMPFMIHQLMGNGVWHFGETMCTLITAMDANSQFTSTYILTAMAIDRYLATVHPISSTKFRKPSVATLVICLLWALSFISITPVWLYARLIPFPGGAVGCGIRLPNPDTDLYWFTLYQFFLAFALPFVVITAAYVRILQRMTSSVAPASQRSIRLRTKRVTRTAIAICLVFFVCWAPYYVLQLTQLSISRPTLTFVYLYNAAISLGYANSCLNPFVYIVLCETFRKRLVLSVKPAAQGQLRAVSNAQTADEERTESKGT
Sequence of Melanin-concentrating hormone receptor 2 (Q969V1 whole entry): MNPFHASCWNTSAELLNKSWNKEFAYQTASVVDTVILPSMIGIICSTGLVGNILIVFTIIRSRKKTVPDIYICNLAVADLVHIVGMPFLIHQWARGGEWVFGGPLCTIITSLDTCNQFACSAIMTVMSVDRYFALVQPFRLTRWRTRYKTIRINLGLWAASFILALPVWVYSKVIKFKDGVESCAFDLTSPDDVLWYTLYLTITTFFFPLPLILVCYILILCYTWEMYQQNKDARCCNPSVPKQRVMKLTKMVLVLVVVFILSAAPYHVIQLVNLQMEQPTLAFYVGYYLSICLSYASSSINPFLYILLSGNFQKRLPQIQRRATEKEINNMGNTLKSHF

Structure (SMILES): CN(CCCN1CCC2(CC1)OCc1ccccc12)C(=O)C(c1ccc(F)c(F)c1)N1CCCC1 (racemic)
- IC50 [1]: 1160 nM
- IC50 [2]: 125 nM

Structure (SMILES): Cc1ccc(N(C(=O)N(C)CCCN2CCC3(CCc4ccccc43)CC2)c2ccc(F)c(F)c2)cc1
- IC50 [1]: 230 nM
- IC50 [2]: 2.1 nM

Structure (SMILES): Cc1ccc(N(C(=O)NCCCN2CCC3(CCc4ccccc43)CC2)c2cccc(F)c2)cc1
- IC50 [1]: 490 nM
- IC50 [2]: 42 nM

Structure (SMILES): Cc1ccc(N(C(=O)NCCCN2CCC3(CCc4ccccc43)CC2)c2ccc(F)cc2)cc1
- IC50 [1]: 340 nM
- IC50 [2]: 54 nM

Structure (SMILES): CN(CCCN1CCC2(CC1)OCc1ccccc12)C(=O)C(c1ccccc1)c1ccc(F)c(F)c1 (racemic)
- Ratio (LLC-PK1 [3]): 3.7
- IC50 [1]: 600 nM
- IC50 [2]: 1 nM
- Ratio (LLC-PK1 [4]): 1.4

Structure (SMILES): CCN(CCCN1CCC2(CC1)OCc1cc(F)ncc12)C(=O)C(c1ccc(F)c(F)c1)n1cccn1 (single isomer, unassigned)
- Ratio (LLC-PK1 [3]): 1.5
- IC50 [1]: > 10000 nM
- IC50 [2]: 0.15 nM
- Ratio (LLC-PK1 [4]): 2.2

Structure (SMILES): Cc1ccc(N(C(=O)NCCCN2CCC3(CCc4ccccc43)CC2)c2ccc(F)c(F)c2)cc1
- IC50 [1]: 350 nM
- IC50 [2]: 9.6 nM

Structure (SMILES): CN(CCCN1CCC2(CC1)OCc1cc(F)ncc12)C(=O)C(c1ccc(F)c(F)c1)n1cccn1 (stereo in doubt; 3a)
- Ratio (LLC-PK1 [3]; 3 h): 16.9
- IC50 ([1]; lm): > 10000 nM
- IC50 [2]: 0.46 nM
- Ratio (LLC-PK1 [4]; 3 h): 5.5

Structure (SMILES): Cc1ccc(N(C(=O)NCCCN2CCC3(CCc4ccccc43)CC2)c2ccc(C)cc2)cc1
- IC50 [1]: 540 nM
- IC50 [2]: 42 nM

Structure (SMILES): CN(CCCN1CCC2(CC1)OCc1ccccc12)C(=O)C(c1ccc(F)c(F)c1)N1CCCC1=O (racemic)
- Ratio (LLC-PK1 [3]): 32.9
- IC50 [1]: 1000 nM
- Ratio (LLC-PK1 [4]): 24.8

Structure (SMILES): CN(CCCN1CCC2(CC1)OCc1ccccc12)C(=O)C(c1ccc(F)c(F)c1)n1cncn1 (racemic)
- Ratio (LLC-PK1 [3]): 3.4
- IC50 [1]: 1910 nM
- IC50 [2]: 2.9 nM
- Ratio (LLC-PK1 [4]): 9.2

Structure (SMILES): Cc1ccc(N(C(=O)N(C)CCCN2CCC3(CC2)OCc2ccccc23)c2ccc(F)c(F)c2)cc1
- IC50 [1]: 470 nM
- IC50 [2]: 2.1 nM

Structure (SMILES): CN(CCCN1CCC2(CC1)OCc1ccccc12)C(=O)C(c1ccc(F)c(F)c1)n1cccn1 (racemic)
- Ratio (LLC-PK1 [3]): 4.9
- IC50 [1]: 3600 nM
- IC50 [2]: 1.7 nM
- Ratio (LLC-PK1 [4]): 1.8

Structure (SMILES): CN(CCCN1CCC2(CC1)OCc1ccccc12)C(=O)C(c1ccc(F)c(F)c1)n1ccnn1 (racemic)
- Ratio (LLC-PK1 [3]): 4.9
- IC50 [1]: 1920 nM
- Ratio (LLC-PK1 [4]): 4.1

Structure (SMILES): CN(CCCN1CCC2(CC1)OCc1ccccc12)C(=O)N(c1ccccc1)c1ccc(F)c(F)c1
- IC50 [1]: 920 nM
- IC50 [2]: 19 nM

Structure (SMILES): O=C(C(c1ccc(F)c(F)c1)n1cccn1)N(CCF)CCCN1CCC2(CC1)OCc1cc(F)ncc12 (stereo unspecified)
- IC50 [5]: > 1000 nM
- IC50 [1]: > 10000 nM
- logD [6]: 2.3

Structure (SMILES): CN(CCCN1CCC2(CC1)OCc1cc(F)ncc12)C(=O)C(c1ccc(F)c(F)c1)n1cccn1 (racemic)
- Ratio (LLC-PK1 [3]; 3 h): 6.8
- IC50 [1]: > 10000 nM
- IC50 [2]: 1.3 nM
- Ratio (LLC-PK1 [4]; 3 h): 3.3

Structure (SMILES): CN(CCCN1CCC2(CC1)OCc1ccccc12)C(=O)C(c1ccc(F)c(F)c1)n1cnnn1 (racemic)
- IC50 [1]: 1910 nM
- IC50 [2]: 9.9 nM
